Tests used:
JH2 domain of human Tyk2 = molecular target: T1, JH2 domain of human Tyk2 (Homo sapiens, UniProt P29597); test: JH2 biochemical assay (TR-FRET probe displacement); type: binding; conditions: JH2 biochemical assay
T1 construct: 10×His-tagged TYK2 JH2 domain (amino acid 575-876)
How it was run: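 A probe-displacement TR-FRET readout: compounds, tested in 3-fold, 10-point dilutions starting at […], compete with 2 nM tracer for 2 nM His-tagged JH2 (residues 575-876) detected by 0.1 nM Tb-anti-His over 60 min. IC50 comes from 4-parameter fits of normalized 520/495 nm ratios.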

[1] = tested on: Tyk2 kinase activity on STAT4; test: pSTAT4 cell assay (MSD, NK92 cells); type: cell-based; conditions: compounds 1 hr, stimulated 15 minutes
Protocol: The inhibitory potency of compounds of the disclosure against the Tyk2 kinase activity on STAT4 was evaluated using an MSD-platform plate-based assay format. NK92 cells natively expressing STAT4 and Tyk2 were serum-starved to reduce background phosphorylation levels, then cells were treated compounds for 1 hr with a 10-point four-fold dilution series starting at 10 μM. Cells were then stimulated with 30 ng/mL IL2 for 15 minutes. Cells were lysed and […] levels were quantitated using an MSD plate-based assay with anti-STAT4 antibodies. The data were normalized and the percent activity versus log concentration of compound were fitted with a 4-parameter logistic model to generate to generate IC50 curves.

T1 sequence (P29597 575-876): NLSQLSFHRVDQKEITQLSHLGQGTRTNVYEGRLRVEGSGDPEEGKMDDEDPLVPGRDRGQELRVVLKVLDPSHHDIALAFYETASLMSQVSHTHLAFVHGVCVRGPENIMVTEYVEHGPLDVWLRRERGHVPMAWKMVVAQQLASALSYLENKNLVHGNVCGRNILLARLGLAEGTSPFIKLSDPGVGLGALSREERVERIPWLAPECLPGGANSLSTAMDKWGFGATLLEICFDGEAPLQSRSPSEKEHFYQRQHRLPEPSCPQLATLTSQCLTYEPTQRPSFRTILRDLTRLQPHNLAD

COc1cc(N2CCc3cnc(NC(C)=O)cc32)nc(C(C)(F)F)n1 [Example 34, N-(1-(2-(1,1-difluoroethyl)-6-methoxypyrimidin-4-yl)-2,3-dihydro-1H-pyrrolo[3,2-c]pyridin-6-yl)acetamide]
IC50 (JH2 domain of human Tyk2): 10 to 100 nM | IC50 [1]: ≥ 1000 nM

COCCN(C)c1cc(N2CC3(CC3)c3cnc(NC(C)=O)cc32)nc(C(C)(F)F)n1 [Example 50, N-(1′-(2-(1,1-difluoroethyl)-6-((2-methoxyethyl)(methyl)amino)pyrimidin-4-yl)-1′,2′-dihydrospiro[cyclopropane-1,3′-pyrrolo[3,2-c]pyridin]-6′-yl)acetamide]
IC50 (JH2 domain of human Tyk2): ≤ 10 nM | IC50 [1]: 100 to 1000 nM

CC(=O)Nc1cc2c(cn1)C1(CC1)CN2c1cc(N2CCC2)nc(C(C)(F)F)n1 [Example 51, N-(1′-(6-(azetidin-1-yl)-2-(1,1-difluoroethyl)pyrimidin-4-yl)-1′,2′-dihydrospiro[cyclopropane-1,3′-pyrrolo[3,2-c]pyridin]-6′-yl)acetamide]
IC50 (JH2 domain of human Tyk2): ≤ 10 nM | IC50 [1]: 100 to 1000 nM

CC(=O)Nc1cc2c(cn1)C1(CC1)CN2c1cc(N2CCOCC2)nc(C(C)(F)F)n1 [Example 52, N-(1′-(2-(1,1-difluoroethyl)-6-morpholinopyrimidin-4-y1)-1′,2′-dihydrospiro[cyclopropane-1,3′-pyrrolo[3,2-c]pyridin]-6′-yl)acetamide]
IC50 (JH2 domain of human Tyk2): ≤ 10 nM | IC50 [1]: 100 to 1000 nM

CC(=O)Nc1cc2c(cn1)C1(CC1)CN2c1cc(C(C)C)nc(C(C)(F)F)n1 [Example 53, N-(1′-(2-(1,1-difluoroethyl)-6-isopropylpyrimidin-4-yl)-1′,2′-dihydrospiro[cyclopropane-1,3′-pyrrolo[3,2-c]pyridin]-6′-yl)acetamide]
IC50 (JH2 domain of human Tyk2): ≤ 10 nM | IC50 [1]: 10 to 100 nM

CC(=O)Nc1cc2c(cn1)C1(CC1)CN2c1cc(C)nc(C2CC2)n1 [Example 54, N-(1′-(2-cyclopropyl-6-methylpyrimidin-4-yl)-1′,2′-dihydrospiro[cyclopropane-1,3′-pyrrolo[3,2-c]pyridin]-6′-yl)acetamide]
IC50 (JH2 domain of human Tyk2): ≤ 10 nM | IC50 [1]: 100 to 1000 nM

CC(=O)Nc1cc2c(cn1)C1(CC1)CN2c1cc(C)nc(C(C)(C)C)n1 [Example 55, N-(1′-(2-(tert-butyl)-6-methylpyrimidin-4-yl)-1′,2′-dihydrospiro[cyclopropane-1,3′-pyrrolo[3,2-c]pyridin]-6′-yl)acetamide]
IC50 (JH2 domain of human Tyk2): ≤ 10 nM | IC50 [1]: 100 to 1000 nM

CCCCc1nc(C)cc(N2CC3(CC3)c3cnc(NC(C)=O)cc32)n1 [Example 58, N-(1′-(2-butyl-6-methylpyrimidin-4-yl)-1′,2′-dihydrospiro[cyclopropane-1,3′-pyrrolo[3,2-c]pyridin]-6′-yl)acetamide]
IC50 (JH2 domain of human Tyk2): 10 to 100 nM | IC50 [1]: ≥ 1000 nM

CCOCc1nc(C)cc(N2CC3(CC3)c3cnc(NC(C)=O)cc32)n1 [Example 59, N-(1′-(2-(ethoxymethyl)-6-methylpyrimidin-4-yl)-1′,2′-dihydrospiro[cyclopropane-1,3′-pyrrolo[3,2-c]pyridin]-6′-yl)acetamide]
IC50 (JH2 domain of human Tyk2): 100 to 1000 nM | IC50 [1]: ≥ 1000 nM

CC(=O)Nc1cc2c(cn1)C1(CC1)CN2c1cc(C)nc(C(F)(F)F)n1 [Example 61, N-(1′-(6-methyl-2-(trifluoromethyl)pyrimidin-4-yl)-1′,2′-dihydrospiro[cyclopropane-1,3′-pyrrolo[3,2-c]pyridin]-6′-yl)acetamide]
IC50 (JH2 domain of human Tyk2): 10 to 100 nM | IC50 [1]: ≥ 1000 nM

CC(=O)Nc1cc2c(cn1)C1(CC1)CN2c1cc(C)nc(CC2CC2)n1 [Example 62, N-(1′-(2-(cyclopropylmethyl)-6-methylpyrimidin-4-yl)-1′,2′-dihydrospiro[cyclopropane-1,3′-pyrrolo[3,2-c]pyridin]-6′-yl)acetamide]
IC50 (JH2 domain of human Tyk2): ≤ 10 nM | IC50 [1]: 100 to 1000 nM

CC(=O)Nc1cc2c(cn1)C1(CC1)CN2c1cc(C)nc(C(F)F)n1 [Example 63, N-(1′-(2-(difluoromethyl)-6-methylpyrimidin-4-yl)-1′,2′-dihydrospiro[cyclopropane-1,3′-pyrrolo[3,2-c]pyridin]-6′-yl)acetamide]
IC50 (JH2 domain of human Tyk2): 10 to 100 nM | IC50 [1]: ≥ 1000 nM

CCc1nc(C)cc(N2CC3(CC3)c3cnc(NC(C)=O)cc32)n1 [Example 64, N-(1′-(2-ethyl-6-methylpyrimidin-4-yl)-1′,2′-dihydrospiro[cyclopropane-1,3′-pyrrolo[3,2-c]pyridin]-6′-yl)acetamide]
IC50 (JH2 domain of human Tyk2): 10 to 100 nM | IC50 [1]: ≥ 1000 nM

CCCc1nc(C)cc(N2CC3(CC3)c3cnc(NC(C)=O)cc32)n1 [Example 65, N-(1′-(6-methyl-2-propylpyrimidin-4-yl)-1′,2′-dihydrospiro[cyclopropane-1,3′-pyrrolo[3,2-c]pyridin]-6′-yl)acetamide]
IC50 (JH2 domain of human Tyk2): 10 to 100 nM | IC50 [1]: 100 to 1000 nM

CC(=O)Nc1cc2c(cn1)C1(CC1)CN2c1cc(C)nc(C(C)C)n1 [Example 66, N-(1′-(2-isopropyl-6-methylpyrimidin-4-yl)-1′,2′-dihydrospiro[cyclopropane-1,3′-pyrrolo[3,2-c]pyridin]-6′-yl)acetamide]
IC50 (JH2 domain of human Tyk2): ≤ 10 nM | IC50 [1]: 100 to 1000 nM

CC(=O)Nc1cc2c(cn1)C1(CC1)CN2c1nc(C)nc(C)c1F [Example 67, N-(1′-(5-fluoro-2,6-dimethylpyrimidin-4-yl)-1′,2′-dihydrospiro[cyclopropane-1,3′-pyrrolo[3,2-c]pyridin]-6′-yl)acetamide]
IC50 (JH2 domain of human Tyk2): 100 to 1000 nM | IC50 [1]: ≥ 1000 nM

CC(=O)Nc1cc2c(cn1)C1(CC1)CN2c1cc(C)nc(C2(C)CC2)n1 [Example 69, N-(1′-(6-methyl-2-(1-methylcyclopropyl)pyrimidin-4-yl)-1′,2′-dihydrospiro[cyclopropane-1,3′-pyrrolo[3,2-c]pyridin]-6′-yl)acetamide]
IC50 (JH2 domain of human Tyk2): ≤ 10 nM | IC50 [1]: 100 to 1000 nM

CC(=O)Nc1cc2c(cn1)C1(CC1)CN2c1cc(C)nc(C2CCCOC2)n1 (stereo not shown) [Example 70, N-(1′-(6-methyl-2-(tetrahydro-2H-pyran-3-yl)pyrimidin-4-yl)-1′,2′-dihydrospiro[cyclopropane-1,3′-pyrrolo[3,2-c]pyridin]-6′-yl)acetamide]
IC50 (JH2 domain of human Tyk2): ≤ 10 nM | IC50 [1]: 100 to 1000 nM

COCCCc1nc(C)cc(N2CC3(CC3)c3cnc(NC(C)=O)cc32)n1 [Example 71, N-(1′-(2-(3-methoxypropyl)-6-methylpyrimidin-4-yl)-1′,2′-dihydrospiro[cyclopropane-1,3′-pyrrolo[3,2-c]pyridin]-6′-yl)acetamide]
IC50 (JH2 domain of human Tyk2): 10 to 100 nM | IC50 [1]: ≥ 1000 nM

CC(=O)Nc1cc2c(cn1)C1(CC1)CN2c1cc([C@H]2C[C@@H](C#N)C2)nc(C(C)(F)F)n1 [Example 74, N-(1′-(6-((1s,3s)-3-cyanocyclobutyl)-2-(1,1-difluoroethyl)pyrimidin-4-yl)-1′,2′-dihydrospiro[cyclopropane-1,3′-pyrrolo[3,2-c]pyridin]-6′-yl)acetamide or N-(1′-(6-((1r,3r)-3-cyanocyclobutyl)-2-(1,1-difluoroethyl)pyrimidin-4-yl)-1′,2′-dihydrospiro[cyclopropane-1,3′-pyrrolo[3,2-c]pyridin]-6′-yl)acetamide]
IC50 (JH2 domain of human Tyk2): ≤ 10 nM | IC50 [1]: 10 to 100 nM
